Results published in PubChem BioAssay (NCI).
Values joined by “and” are separate entries in the source; they are usually repeats but may differ in a detail not shown here. Identical values can stand only once.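 Compound exposure: 48 hours, 5 concentrations, 96-well plates. GI50: concentration for 50% inhibition of growth. TGI: total growth inhibition.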

What was measured:
Assay in all cases: inhibition of tumour cell growth, NCI panel, 48 h
[1] = tested on: CCRF-CEM leukemia
[2] = tested on: HCT-15 colon
[3] = tested on: EKVX NSCLC
[4] = tested on: SK-MEL-5 melanoma
[5] = tested on: SNB-19 CNS
[6] = tested on: MCF7 breast
[7] = tested on: HS 578T breast
[8] = tested on: SNB-75 CNS
[9] = tested on: BT-549 breast
[10] = tested on: MDA-N

SMILES | TGI [1] | TGI [2] | TGI [3] | TGI [4] | TGI [5] | TGI [6] | TGI [7] | TGI [8] | TGI [9] | TGI [10] | GI50 [1] | GI50 [3] | GI50 [6] | GI50 [7] | GI50 [4] | GI50 [5] | GI50 [9] | GI50 [2] | GI50 [8]
CCCCCCCSc1nc2c(C(=O)OCC)ncn2c2ccccc12 | > 100 µM | > 100 µM | > 100 µM | – | – | – | – | – | – | – | – | – | – | – | – | – | – | – | –
O=NC1C(Cl)C2CC1C1C(Br)C(Br)CC21 (configuration not stated) | > 100 µM | > 100 µM | > 100 µM | > 100 µM | > 100 µM | > 100 µM | > 100 µM | > 100 µM | – | – | – | – | – | – | – | – | – | – | –
CN1CCCCC1CCN1CCCCC1 (configuration not stated) | – | > 100 µM | > 100 µM | > 100 µM | > 100 µM | > 100 µM | > 100 µM | > 100 µM | > 100 µM | > 100 µM | – | – | – | – | – | – | – | – | –
C/C=C/[P+](c1ccccc1)(c1ccccc1)c1ccccc1 | > 42.4 µM | > 100 µM | 13.5 µM | 9.54 µM | 15 µM | > 45.5 µM | 3.17 µM | 19.9 µM | 3 µM | 10.6 µM | – | – | – | – | – | – | – | – | –
Cc1sc(Cc2ccccc2)nc1-c1ccc(N)cc1 | 72.8 µM | 46.9 µM | > 100 µM | 35.6 µM | > 100 µM | 44.1 µM | > 100 µM | – | 83.4 µM | – | – | – | – | – | – | – | – | – | –
CCOC(=O)/C(Cl)=C(\C)Nc1nc2c(ccc3ccccc32)s1 | > 100 µM | > 100 µM | > 100 µM | > 100 µM | > 100 µM | > 100 µM | > 100 µM | > 100 µM | > 100 µM | > 100 µM | – | – | – | – | – | – | – | – | –
CN(C)CCCNc1ccc2ncn3c4ccccc4c(=O)c1c23 | 23.4 µM | 85.6 µM | – | – | > 100 µM | – | – | 92.2 µM | – | – | – | – | – | – | – | – | – | – | –
CC12CCC(C(=O)OC1=O)C(C)(C)O2 (configuration not stated) | > 100 µM | – | > 100 µM | > 100 µM | > 100 µM | > 100 µM | > 100 µM | > 100 µM | > 100 µM | > 100 µM | – | – | – | – | – | – | – | – | –
O=S(=O)(Sc1ccc(Cl)cc1)c1ccc(Cl)cc1 | 18.5 µM | 40.2 µM | 57.5 µM | 28.6 µM | 65 µM | – | – | 40.5 µM | – | – | – | – | – | – | – | – | – | – | –
CC(=O)C(O)N1C(=O)C=CC1=O (configuration not stated) | – | – | 25 µM and 33.5 µM and 12.3 µM | – | – | > 25 µM and 32900 µM | – | – | 24.8 µM | 25 µM | > 25 µM and 2.74 µM | 21.2 µM and 18.7 µM | 14200 µM | 15800 µM | – | – | – | – | –
Cc1cc(NCc2cc(Nc3ccnc4cc(Cl)ccc34)ccc2F)nc(N2CCCC2)n1 | > 100 µM | – | 11.1 µM | 3.19 µM | 10.1 µM | – | 4.6 µM | – | – | – | 0.353 µM | 2.43 µM | – | 1.61 µM | 1.76 µM | 2.82 µM | – | – | –
COc1ccc(N2C(=O)C3c4[nH]c5c(C)cccc5c4C4CCC(C(C)(C)C)CC4C3C2=O)cc1 (configuration not stated) | > 10 µM | > 10 µM | > 10 µM | > 10 µM | > 10 µM | > 10 µM | > 10 µM | > 10 µM | – | > 10 µM | – | – | – | – | – | – | – | – | –
N#CC(c1ccccc1)c1nc2ccc(=N)cc-2n(O)c1C(C#N)c1ccccc1 (configuration not stated) | > 100 µM | > 100 µM | > 100 µM | – | > 100 µM | – | – | – | – | – | – | – | – | – | – | – | – | – | –
CN(C)CCNc1nc(-c2ccc3ccccc3c2)nc2nc[nH]c12 | 52.9 µM | 18.3 µM | 19.8 µM | 25 µM | 28.1 µM | 20.6 µM | 22.8 µM | 4.44 µM | 23.4 µM | 23.2 µM | – | – | – | – | – | – | – | – | –
C[C@@H]1CC[C@H]2C(COCCOCC3=C(C(F)(F)F)O[C@@H]4O[C@@]5(C)CC[C@H]6[C@H](C)CC[C@@H]3[C@@]46OO5)=C(C(F)(F)F)O[C@@H]3O[C@@]4(C)CC[C@@H]1[C@]32OO4 | > 100 µM | > 13.8 µM | > 100 µM | > 100 µM | > 100 µM | > 100 µM | > 100 µM | > 100 µM | > 100 µM | – | < 0.0209 µM | 0.795 µM | 0.0322 µM | – | 0.176 µM | – | 0.224 µM | 0.0264 µM | > 4.64 µM
CC1=C2C(=O)c3ccccc3C(=O)[C@H]2[C@H]2CCO[C@H]2O1 | 69.8 µM | 86 µM | 91.6 µM | 30.8 µM | > 100 µM | 23.6 µM | > 100 µM | 43 µM | 28.2 µM | 36.6 µM | – | – | – | – | – | – | – | – | –
Cc1ccc(Oc2ccc(C)cc2[N+](=O)[O-])cc1 | > 100 µM | > 100 µM | > 100 µM | 92.6 µM | – | – | – | > 100 µM | – | – | – | – | – | – | – | – | – | – | –
O=c1oc2ccccc2c2c(=O)c3ccc(OC/C(=N/O)c4ccc(Cl)cc4)cc3oc12 | 60.8 µM | 24.5 µM | – | 18.7 µM | 33.1 µM | 49.6 µM | 42.1 µM | – | – | 10.9 µM | – | – | – | – | – | – | – | – | –
Cc1ccc(S(=O)(=O)NCCSCCNS(=O)(=O)c2ccc(C)cc2)cc1 | > 100 µM | > 100 µM | – | > 100 µM | > 100 µM | > 100 µM | > 100 µM | > 100 µM | – | > 100 µM | – | – | – | – | – | – | – | – | –
COc1ccc([C@@H]2ON(C)[C@H]3CN(C)C(=O)[C@@H]23)cc1 | > 100 µM | > 100 µM | – | > 100 µM | > 100 µM | > 100 µM | > 100 µM | > 100 µM | – | > 100 µM | – | – | – | – | – | – | – | – | –
O=C1c2c(c3c4ccccc4[nH]c3c3ccc4ccccc4c23)C(=O)N1CCN1CCCCC1 | 11.3 µM | 3.38 µM | > 100 µM | 3.1 µM | 46.4 µM | 2.34 µM | 5.71 µM | 22.6 µM | – | – | 0.272 µM | 13.4 µM | 0.0388 µM | 2.04 µM | 1.51 µM | 0.94 µM | – | 0.963 µM | 2.2 µM
Cc1c2cc[n+](CCN3CCCCC3)cc2c(C)c2c1[nH]c1ccc(O)cc12 | 17.4 µM and > 100 µM | 75 µM and > 100 µM | 24.6 µM and 51.5 µM | 31.2 µM and 11.1 µM | 10.2 µM and 29.1 µM | 39.7 µM and 11.5 µM | > 100 µM | 5.4 µM and 18.7 µM | 28.7 µM | 51 µM | 1.8 µM | 7.83 µM | – | – | – | 1.96 µM | – | – | 2.7 µM
CCCCCCNC(=O)c1cnc(Cl)cn1 | > 100 µM | 7.25 µM | 20.7 µM | 30.4 µM | 43.7 µM | 23.6 µM | 44.4 µM | 49.1 µM | 82.4 µM | – | – | – | – | – | – | – | – | – | –
Cc1ccccc1N=Nc1ccc(N=Nc2c(O)ccc3ccccc23)c(C)c1 | – | > 100 µM | > 100 µM | > 100 µM | > 100 µM | – | > 100 µM | > 100 µM | > 100 µM | – | – | – | – | – | – | – | – | – | –
NC(N)=N/N=C/c1c(-c2ccccc2)nc2n1ccc1nc(-c3ccccc3)c(/C=N/N=C(N)N)n12 | > 100 µM | > 100 µM | 65.7 µM | > 100 µM | > 100 µM | > 100 µM | > 100 µM | > 100 µM | > 100 µM | – | – | – | – | – | – | – | – | – | –
O=c1ccc2cc(O)c(O)cc2o1 | > 100 µM | > 100 µM | > 100 µM | > 100 µM | > 100 µM | > 100 µM | > 100 µM | > 100 µM | > 100 µM | > 100 µM | – | – | – | – | – | – | – | – | –
